This assay deals with DNA-PK (Homo sapiens, UniProt P78527). Put plainly: DNA-PK inhibition assay (radiometric, 33P-ATP). It is filed as biochemical. The conditions noted are these: 100 μM ATP, competitive tight-binding fit. In a few lines: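 33P transfer from 100 µM ATP to a DNA-PK peptide (0.8 mg/mL) is measured after 45 min, using about 6 nM enzyme activated by 10 µg/mL sheared dsDNA (HEPES pH 7.5, MgCl2, DTT). Filter-bound counts fitted to a competitive tight-binding inhibition model give Ki.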

pKi: −log10 of the molar value.

For the compound `CNC(=O)c1ccc(C(C)CNc2cc(-c3ccc4c(cnn4C4COC4)c3C)ncn2)c(OC)c1` (stereo not drawn) [Compound 278], the negative-log Ki (pKi) was > 7.52.
The value for `CNC(=O)c1ccc(C(C)CNc2cc(-c3ccc4c(c3)c(C)nn4C3COC3)ncn2)c(OC)c1` (stereo not drawn) [Compound 279] was > 7.52.
In the case of `CNC(=O)c1ccc(C(C)CNc2cc(-c3cc4cnn(C5COC5)c4cc3C)ncn2)c(OC)c1` (stereo not drawn) [Compound 283] it was > 7.52; in that of `CNC(=O)c1ccc(C(C)CNc2cc(-c3cnc4c(cnn4C(C)(C)C(=O)O)c3)ncn2)c(OC)c1` (stereo not drawn) [Compound 284], > 7.52.
In the case of `CNC(=O)c1ccc([C@H](C)CNc2cc(-c3cnc4c(cnn4CC(C)(C)O)c3)ncn2)c(OC)c1` [Compound 285], the pKi is > 7.52.
In the case of `CNC(=O)c1ccc([C@H](C)CNc2cc(-c3cnc4c(cnn4C4CCN(C)CC4)c3)ncn2)c(OC)c1` [Compound 286] it was > 7.52.
In the case of `Cc1ccc(-c2cc(NCC(C)c3ccncc3OC3CC3)ncn2)cn1` (stereo not drawn) [Compound 287] it was > 7.52.
With `Cc1ccc(-c2cc(NCC(C)c3ccnc4c3OCC4)ncn2)cn1` (stereo not drawn) [Compound 289], the pKi is > 7.52.
With `COc1ccc(N)cc1C(C)CNc1cc(-c2ccc(C)nc2)ncn1` (stereo not drawn) [Compound 290], the pKi is > 7.52.
The value for `CNC(=O)c1ccc([C@H](C)CNc2cc(-c3ccc4c(cnn4C)c3)ncn2)c(OC)c1` [Compound 293] was > 7.52; that for `CNC(=O)c1ccc([C@H](C)CNc2cc(-c3ccc4c(cnn4CC4CC4)c3)ncn2)c(OC)c1` [Compound 294] was > 7.52.
As to `COc1cc(C(=O)NCC(F)F)ccc1C(C)CNc1cc(-c2ccc(C)nc2)ncn1` (stereo not drawn) [Compound 296], the negative-log Ki (pKi) was > 7.52.
`Cc1ccc(-c2cc(NCC(C)c3cncnc3OC3CCC3)ncn2)cn1` (stereo not drawn) [Compound 299]: the pKi was > 7.52.
`Cc1ccc(-c2cc(NCC(C)c3ccc(F)c4cccnc34)ncn2)cn1` (stereo not drawn) [Compound 303]: the pKi was > 7.52.
In the case of `CNC(=O)c1ccc([C@H](C)CNc2cc(-c3cnc(NC)nc3)ncn2)c(OC)c1` [Compound 304] it was > 7.52.
The value for `CNC(=O)c1ccc(C(C)CNc2cc(-c3ccc(OC4COC4)nc3)ncn2)c(OC)c1` (stereo not drawn) [Compound 307] was > 7.52; that for `CNC(=O)c1ccc([C@H](C)CNc2cc(-c3cnc(C)nc3)ncn2)c(OC)c1` [Compound 308] was > 7.52; that for `CNC(=O)c1ccc([C@H](C)CNc2cc(-c3ccc(C(=O)N4CCN(C)CC4)cc3)ncn2)c(OC)c1` [Compound 309] was > 7.52.
On to `CNC(=O)c1ccc([C@H](C)CNc2cc(-c3ccc4c(c3)CC(=O)N4)ncn2)c(OC)c1` [Compound 310], for which the pKi is > 7.52.
In the case of `CNC(=O)c1ccc([C@H](C)CNc2cc(-c3ccc4c(c3)NC(=O)C4)ncn2)c(OC)c1` [Compound 311] it was > 7.52; in that of `CNC(=O)c1ccc([C@H](C)CNc2cc(-c3ccc4c(c3)CNC4=O)ncn2)c(OC)c1` [Compound 312], > 7.52.
In the case of `CNC(=O)c1ccc([C@H](C)CNc2cc(-c3ccc(N4CCCC4=O)cc3)ncn2)c(OC)c1` [Compound 313] it was > 7.52.
In the case of `CNC(=O)c1ccc([C@H](C)CNc2cc(-c3ccc4c(c3)OCC(=O)N4)ncn2)c(OC)c1` [Compound 314] it was > 7.52; in that of `CNC(=O)c1ccc([C@H](C)CNc2cc(-c3ccc4[nH]c(=O)[nH]c4c3)ncn2)c(OC)c1` [Compound 315], > 7.52; in that of `CNC(=O)c1ccc([C@H](C)CNc2cc(-c3ccc4scnc4c3)ncn2)c(OC)c1` [Compound 316], > 7.52.
For the compound `CNC(=O)c1ccc([C@H](C)CNc2cc(-c3ccc(NC(C)=O)cc3)ncn2)c(OC)c1` [Compound 317], the pKi was > 7.52.
In the case of `CNC(=O)c1ccc([C@H](C)CNc2cc(-c3ccc(C(=O)NC4CC4)cc3)ncn2)c(OC)c1` [Compound 318], the negative logarithm of the Ki (pKi) was > 7.52.
In the case of `CNC(=O)c1ccc([C@H](C)CNc2cc(-c3ccc(C(C)=O)cc3)ncn2)c(OC)c1` [Compound 319] it was > 7.52.
Turning to `CNC(=O)c1ccc(C(C)CNc2cc(-c3ccc(OC)nc3)ncn2)c(OC)c1` (stereo not drawn) [Compound 320], the pKi is > 7.52.
In the case of `CNC(=O)c1ccc(C(C)CNc2cc(-c3ccc(OCC4CCC4)nc3)ncn2)c(OC)c1` (stereo not drawn) [Compound 321] it was > 7.52; in that of `CCOc1ccc(-c2cc(NCC(C)c3ccc(C(=O)NC)cc3OC)ncn2)cn1` (stereo not drawn) [Compound 322], > 7.52.
`CNC(=O)c1ccc(C(C)CNc2cc(-c3ccc(OCCSC)nc3)ncn2)c(OC)c1` (stereo not drawn) [Compound 323]: the negative logarithm of the Ki (pKi) was > 7.52.
Regarding `CNC(=O)c1ccc(C(C)CNc2cc(-c3ccc(OC(C)C)nc3)ncn2)c(OC)c1` (stereo not drawn) [Compound 324], the pKi is > 7.52.
The value for `CNC(=O)c1ccc(C(C)CNc2cc(-c3ccc(OCCS(C)(=O)=O)nc3)ncn2)c(OC)c1` (stereo not drawn) [Compound 325] was > 7.52; that for `CNC(=O)c1ccc(C(C)CNc2cc(-c3ccc(OCC4CC4)nc3)ncn2)c(OC)c1` (stereo not drawn) [Compound 326] was > 7.52; that for `CNC(=O)c1ccc(C(C)CNc2cc(-c3ccc(OC4CN(C(C)=O)C4)nc3)ncn2)c(OC)c1` (stereo not drawn) [Compound 327] was > 7.52.
The value for `CNC(=O)c1ccc([C@H](C)CNc2cc(-c3ccc(F)nc3)ncn2)c(OC)c1` [Compound 328] was > 7.52; that for `Cc1ccc(-c2cc(NCC(C)c3ccnc4cccnc34)ncn2)cn1` (stereo not drawn) [Compound 331] was > 7.52; that for `Cc1ccc(-c2cc(NCC(C)c3cccc4nccnc34)ncn2)cn1` (stereo not drawn) [Compound 332] was > 7.52.
In the case of `Cc1ccc(-c2cc(NCC(C)c3cccc4scnc34)ncn2)cn1` (stereo not drawn) [Compound 333] it was > 7.52.
For `CNC(=O)c1ccc(C(C)CNc2cc(-c3ccc(C4(CO)CC4)cc3)ncn2)c(OC)c1` (stereo not drawn) [Compound 338], the pKi was > 7.52.
Turning to `CNC(=O)c1ccc(C(C)CNc2cc(-c3ccc(CCO)cc3)ncn2)c(OC)c1` (stereo not drawn) [Compound 339], the negative logarithm of the Ki (pKi) was > 7.52.
With `CNC(=O)c1ccc(C(C)CNc2cc(-c3ccc(CCOC)cc3)ncn2)c(OC)c1` (stereo not drawn) [Compound 340], the pKi was > 7.52.
Take `CNC(=O)c1ccc([C@H](C)CNc2cc(-c3ccc(N(C)C(C)C4CC4)nc3)ncn2)c(OC)c1` (stereo partly drawn) [Compound 341]: the pKi was > 7.52.
As for `CNC(=O)c1ccc([C@H](C)CNc2cc(-c3ccc4c(c3)CCN4C)ncn2)c(OC)c1` [Compound 342], the pKi is > 7.52.
For `COc1cc(N)ncc1C(C)CNc1cc(-c2ccc(N3CCN(C(C)=O)CC3)nc2)ncn1` (stereo not drawn) [Compound 345], the pKi was > 7.52.
`Cc1ccc(-c2cc(NCC(C)c3cccc4cc(F)cnc34)ncn2)cn1` (stereo not drawn) [Compound 346]: the pKi is > 7.52.
The value for `CNC(=O)c1ccc([C@H](C)CNc2cc(-c3ccc(N(C)C4CCN(C)CC4)nc3)ncn2)c(OC)c1` [Compound 347] was > 7.52; that for `CNC(=O)c1ccc([C@H](C)CNc2cc(-c3ccc(NC4CCN(C)CC4)nc3)ncn2)c(OC)c1` [Compound 348] was > 7.52.
The value for `CNC(=O)c1ccc([C@H](C)CNc2cc(-c3ccc(CN)cc3)ncn2)c(OC)c1` [Compound 351] was > 7.52; that for `CNC(=O)c1ccc([C@H](C)CNc2cc(-c3ccc(NC(CO)CO)nc3)ncn2)c(OC)c1` [Compound 353] was > 7.52; that for `CNC(=O)c1ccc([C@H](C)CNc2cc(-c3ccc(Nc4nc[nH]n4)nc3)ncn2)c(OC)c1` [Compound 354] was > 7.52.
Turning to `CNC(=O)c1ccc([C@H](C)CNc2cc(-c3ccc(NCCCO)nc3)ncn2)c(OC)c1` [Compound 355], the negative logarithm of the Ki (pKi) is > 7.52.
The value for `CNCCCNc1ccc(-c2cc(NC[C@@H](C)c3ccc(C(=O)NC)cc3OC)ncn2)cn1` [Compound 356] was > 7.52.
Regarding `CNC(=O)c1ccc([C@H](C)CNc2cc(-c3ccc(NC)nc3)ncn2)c(OC)c1` [Compound 358], the pKi is > 7.52.
Take `CNC(=O)c1ccc([C@H](C)CNc2cc(-c3ccc(N(C)C)nc3)ncn2)c(OC)c1` [Compound 359]: the pKi is > 7.52.
In the case of `CCNc1ccc(-c2cc(NC[C@@H](C)c3ccc(C(=O)NC)cc3OC)ncn2)cn1` [Compound 360] it was > 7.52.
In the case of `CCCNc1ccc(-c2cc(NC[C@@H](C)c3ccc(C(=O)NC)cc3OC)ncn2)cn1` [Compound 361] it was > 7.52.
In the case of `CCN(C)c1ccc(-c2cc(NC[C@@H](C)c3ccc(C(=O)NC)cc3OC)ncn2)cn1` [Compound 362], the negative logarithm of the Ki (pKi) is > 7.52.
`CNC(=O)c1ccc([C@H](C)CNc2cc(-c3ccc(N4CCCC4)nc3)ncn2)c(OC)c1` [Compound 363]: the pKi is > 7.52.
Turning to `CNC(=O)c1ccc([C@H](C)CNc2cc(-c3ccc(NCC4CC4)nc3)ncn2)c(OC)c1` [Compound 364], the pKi was > 7.52.
For `CNC(=O)c1ccc([C@H](C)CNc2cc(-c3ccc(N(C)CCO)nc3)ncn2)c(OC)c1` [Compound 365], the pKi is > 7.52.
Turning to `CNC(=O)c1ccc([C@H](C)CNc2cc(-c3ccc(N4CC=CCC4)nc3)ncn2)c(OC)c1` [Compound 366], the pKi is > 7.52.
For the compound `CNC(=O)c1ccc([C@H](C)CNc2cc(-c3ccc(N4CCOCC4)nc3)ncn2)c(OC)c1` [Compound 367], the pKi is > 7.52.
With `CNCCN(C)c1ccc(-c2cc(NC[C@@H](C)c3ccc(C(=O)NC)cc3OC)ncn2)cn1` [Compound 368], the negative-log Ki (pKi) is > 7.52.
The value for `CNC(=O)c1ccc([C@H](C)CNc2cc(-c3ccc(NCCN(C)C)nc3)ncn2)c(OC)c1` [Compound 369] was > 7.52; that for `CNC(=O)c1ccc([C@H](C)CNc2cc(-c3ccc(N(C)CCOC)nc3)ncn2)c(OC)c1` [Compound 370] was > 7.52; that for `CNC(=O)c1ccc([C@H](C)CNc2cc(-c3ccc(NCCCOC)nc3)ncn2)c(OC)c1` [Compound 375] was > 7.52.
In the case of `CNC(=O)c1cc(OC)c(C(C)CNc2cc(-c3ccc(C)nc3)ncn2)cn1` (stereo not drawn) [Compound 376] it was > 7.52.

The term pKi denotes the negative decadic logarithm of the Ki, by convention in mol/L. A lower pKi goes with a large Ki.

Source of the values: patent US10391095B2, “DNA-PK inhibitors” (Vertex Pharmaceuticals Incorporated, priority 2012, dated 2019).
